Reference: patent publication US20240199587A1, “HETEROCYCLIC COMPOUNDS” (Hoffmann-La Roche Inc., priority 2021, published 2024)

These compounds were tested against T1, MAGL (Homo sapiens, UniProt Q99685) (assay: 2-AG assay (MAGL inhibitory activity, hydrolysis of 2-arachidonoylglycerol to arachidonic acid followed by mass spectrometry)). Conditions: 8 μM 2-arachidonoylglycerol, 15 min pre-incubation, 30 min incubation at RT, RapidFire MS readout.
T1 sequence (Q99685 1-303): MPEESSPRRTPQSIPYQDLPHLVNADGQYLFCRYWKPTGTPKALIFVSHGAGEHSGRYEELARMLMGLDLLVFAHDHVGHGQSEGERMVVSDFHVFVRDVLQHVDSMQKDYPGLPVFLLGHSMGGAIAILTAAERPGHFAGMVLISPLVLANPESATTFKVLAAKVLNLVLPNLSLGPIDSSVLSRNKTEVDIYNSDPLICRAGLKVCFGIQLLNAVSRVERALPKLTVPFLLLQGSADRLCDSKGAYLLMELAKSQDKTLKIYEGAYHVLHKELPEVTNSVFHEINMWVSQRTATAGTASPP
Assay type: biochemical
How it was run: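 Arachidonic acid released from 8 μM 2-arachidonoylglycerol was quantified by online SPE triple-quadrupole MS (negative ESI, 303.1→259.1), normalised to d8-arachidonic acid internal standard. Reaction ran 30 min at RT after 15 min RT compound pre-incubation with […] MAGL in TRIS/EDTA/Tween-20 buffer, 2.5% DMSO.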

SMILES	IC50 [nM]
CCc1ncn(C2CC3(C2)CN(C(=O)c2ccc(-c4noc(C(C)(C)C)n4)cc2)C3)n1 [Example 156, [4-(5-tert-butyl-1,2,4-oxadiazol-3-yl)phenyl]−[6-(3-ethyl-1,2,4-triazol-1-yl)-2-azaspiro[3.3]heptan-2-yl]methanone]	33.9
O=C(N1CC2(CC(n3cnc(C4CC4)n3)C2)C1)N1CC2(C1)CN(S(=O)(=O)c1ccc(F)cc1C(F)(F)F)C2 [Example 211, (6-(3-cyclopropyl-1H-1,2,4-triazol-1-yl)-2-azaspiro[3.3]heptan-2-yl)(6-((4-fluoro-2-(trifluoromethyl)phenyl)sulfonyl)-2,6-diazaspiro[3.3]heptan-2-yl)methanone]	1.4
O=C(N1CC(Oc2nnccc2C(F)(F)F)C1)N1CC2(CC(n3cnc(C4CC4)n3)C2)C1 [Example 322, [6-(3-cyclopropyl-1,2,4-triazol-1-yl)-2-azaspiro[3.3]heptan-2-yl]-[3-[4-(trifluoromethyl)pyridazin-3-yl]oxyazetidin-1-yl]methanone]	340
O=C(N1CC(OCc2ccc(C(F)(F)F)cc2F)C1)N1CC2(CC(n3cnc(C4CC4)c3)C2)C1 [Example 102, [6-(4-cyclopropylimidazol-1-yl)-2-azaspiro[3.3]heptan-2-yl]-[3-[[2-fluoro-4-(trifluoromethyl)phenyl]methoxy]azetidin-1-yl]methanone]	51.4
O=C(N1CC(Oc2ccc(C(F)(F)F)nn2)C1)N1CC2(CC(n3cnc(C4CC4)n3)C2)C1 [Example 248, [6-(3-cyclopropyl-1,2,4-triazol-1-yl)-2-azaspiro[3.3]heptan-2-yl]−[3-[6-(trifluoromethyl)pyridazin-3-yl]oxyazetidin-1-yl]methanone]	13.4
COc1ncccc1S(=O)(=O)N1CC2(CN(C(=O)N3CC4(CC(n5cnc(C6CC6)n5)C4)C3)C2)C1 [Example 309, [6-(3-cyclopropyl-1,2,4-triazol-1-yl)-2-azaspiro[3.3]heptan-2-yl]-[2-[(2-methoxy-3-pyridyl)sulfonyl]-2,6-diazaspiro[3.3]heptan-6-yl]methanone]	148
O=C(N1CC2(CC(n3cnc(C4CC4)n3)C2)C1)N1CC2(C1)CN(S(=O)(=O)c1cccnc1Cl)C2 [Example 243, [2-[(2-chloro-3-pyridyl)sulfonyl]-2,6-diazaspiro[3.3]heptan-6-yl]-[6-(3-cyclopropyl-1,2,4-triazol-1-yl)-2-azaspiro[3.3]heptan-2-yl]methanone]	8.8
O=C(N1CC(OCc2ccc(C(F)(F)F)c(F)c2)C1)N1CC2(CC(n3cnc(C4CC4)c3)C2)C1 [Example 103, [6-(4-cyclopropylimidazol-1-yl)-2-azaspiro[3.3]heptan-2-yl]-[3-[[3-fluoro-4-(trifluoromethyl)phenyl]methoxy]azetidin-1-yl]methanone]	9.9
CC(C)c1ncn(C2CC3(C2)CN(C(=O)N2CC4(CC(Cc5ccc(F)cc5F)C4)C2)C3)n1 [Example 203, [6-[(2,4-difluorophenyl)methyl]-2-azaspiro[3.3]heptan-2-yl]-[6-(3-isopropyl-1,2,4-triazol-1-yl)-2-azaspiro[3.3]heptan-2-yl]methanone]	0.8
O=C(N1CC(OCc2ccc(F)cc2Cl)C1)N1CC2(CC(n3cnc(C4CC4)n3)C2)C1 [Example 77, (3-((2-chloro-4-fluorobenzyl)oxy)azetidin-1-yl)(6-(3-cyclopropyl-1H-1,2,4-triazol-1-yl)-2-azaspiro[3.3]heptan-2-yl)methanone]	9.2
O=C(N1CC(c2ccc(N3CCC(O)(C(F)(F)F)C3)nc2)C1)N1CC2(CC(n3cnc(C4CC4)n3)C2)C1 (centres unmarked) [Example 212, [6-(3-cyclopropyl-1,2,4-triazol-1-yl)-2-azaspiro[3.3]heptan-2-yl]-[3-[6-[3-hydroxy-3-(trifluoromethyl)pyrrolidin-1-yl]-3-pyridyl]azetidin-1-yl]methanone]	1.5
O=C(N1CC2(CC(n3cnc(C4CC4)n3)C2)C1)N1CC2(C1)CN(S(=O)(=O)c1cnccc1Cl)C2 [Example 278, [2-[(4-chloro-3-pyridyl)sulfonyl]-2,6-diazaspiro[3.3]heptan-6-yl]-[6-(3-cyclopropyl-1,2,4-triazol-1-yl)-2-azaspiro[3.3]heptan-2-yl]methanone]	37.3
O=C(N1CC(c2cnc(N3CC[C@H](C(F)(F)F)C3)nc2)C1)N1CC2(CC(n3cnc(C4CC4)n3)C2)C1 [Example 481, [6-(3-cyclopropyl-1,2,4-triazol-1-yl)-2-azaspiro[3.3]heptan-2-yl]-[3-[2-[(3S)-3-(trifluoromethyl)pyrrolidin-1-yl]pyrimidin-5-yl]azetidin-1-yl]methanone]	4.07
CC(C)(C)CS(=O)(=O)NC1CC2(C1)CN(C(=O)N1CC3(CC(n4cnc(C5CC5)n4)C3)C1)C2 [Example 215, N-[2-[6-(3-cyclopropyl-1,2,4-triazol-1-yl)-2-azaspiro[3.3]heptane-2-carbonyl]-2-azaspiro[3.3]heptan-6-yl]-2,2-dimethyl-propane-1-sulfonamide]	1.7
O=C(N1CC(OCc2ccc(S(=O)(=O)C(F)(F)F)cc2)C1)N1CC2(CC(n3cnc(C4(O)CC4)n3)C2)C1 [Example 399, [6-[3-(1-hydroxycyclopropyl)-1,2,4-triazol-1-yl]-2-azaspiro[3.3]heptan-2-yl]-[3-[[4-(trifluoromethylsulfonyl)phenyl]methoxy]azetidin-1-yl]methanone]	102

More lines, in order of falling IC50, values ahead:

IC50 [nM]	SMILES
491	O=C(N1CC2(CC(Cc3ccc(F)cc3F)C2)C1)N1CC2(CC(c3ccc(F)cc3)C2)C1 [Example 343, [6-[(2,4-difluorophenyl)methyl]-2-azaspiro[3.3]heptan-2-yl]-[6-(4-fluorophenyl)-2-azaspiro[3.3]heptan-2-yl]methanone]
95.5	NC(=O)c1ccc(S(=O)(=O)N2CC3(CN(C(=O)N4CC5(CC(n6cnc(C7CC7)n6)C5)C4)C3)C2)cc1 [Example 298, 4-[[6-[6-(3-cyclopropyl-1,2,4-triazol-1-yl)-2-azaspiro[3.3]heptane-2-carbonyl]-2,6-diazaspiro[3.3]heptan-2-yl]sulfonyl]benzamide]
66.3	O=C(N1CC2(CC(Cc3ccc(Cl)cn3)C2)C1)N1CC2(C1)CN(c1cncc(F)c1)C2 [Example 348, [6-[(5-chloro-2-pyridyl)methyl]-2-azaspiro[3.3]heptan-2-yl]-[6-(5-fluoro-3-pyridyl)-2,6-diazaspiro[3.3]heptan-2-yl]methanone]
52.9	CS(=N)(=O)c1cccc(CC2CC3(C2)CN(C(=O)N2CC4(CC(n5cnc(C6(O)CC6)n5)C4)C2)C3)c1 (centres unmarked) [Example 374, [6-[3-(1-hydroxycyclopropyl)-1,2,4-triazol-1-yl]-2-azaspiro[3.3]heptan-2-yl]-[6-[[3-(methylsulfonimidoyl)phenyl]methyl]-2-azaspiro[3.3]heptan-2-yl]methanone]
32.7	O=C(N1CC(Oc2ccc(C(F)(F)F)nc2)C1)N1CC2(CC(n3cnc(C4CC4)n3)C2)C1 [Example 270, (6-(3-cyclopropyl-1H-1,2,4-triazol-1-yl)-2-azaspiro[3.3]heptan-2-yl)(3-((6-(trifluoromethyl)pyridin-3-yl)oxy)azetidin-1-yl)methanone]
14.9	O=C(c1cnc(OCC2(C(F)(F)F)CC2)c(C(F)(F)F)c1)N1CC2(CC(n3cnc(C4CC4)n3)C2)C1 [Example 153, [6-(3-cyclopropyl-1,2,4-triazol-1-yl)-2-azaspiro[3.3]heptan-2-yl]−[5-(trifluoromethyl)-6-[[1-(trifluoromethyl)cyclopropyl]methoxy]-3-pyridyl]methanone]
7.1	O=C(N1CC(OCc2ccc(OC(F)(F)F)cc2)C1)N1CC2(CC(n3cnc(C4CC4)n3)C2)C1 [Example 71, (6-(3-cyclopropyl-1H-1,2,4-triazol-1-yl)-2-azaspiro[3.3]heptan-2-yl)(3-((4-(trifluoromethoxy)ben-zyl)oxy)azetidin-1-yl)methanone]
4.41	CS(=O)(=O)c1ccc(CC2CC3(C2)CN(C(=O)N2CC4(CC(n5cnc(C6CC6)n5)C4)C2)C3)nc1 [Example 488, [6-(3-cyclopropyl-1,2,4-triazol-1-yl)-2-azaspiro[3.3]heptan-2-yl]-[6-[(5-methylsulfonyl-2-pyridyl)methyl]-2-azaspiro[3.3]heptan-2-yl]methanone]
4.31	CS(=N)(=O)c1ccc(CC2CC3(C2)CN(C(=O)N2CC4(CC(n5cnc(C6CC6)n5)C4)C2)C3)cc1 (single isomer, unassigned) [Example 443, [6-(3-cyclopropyl-1,2,4-triazol-1-yl)-2-azaspiro[3.3]heptan-2-yl]-[6-[[4-(methylsulfonimidoyl)phenyl]methyl]-2-azaspiro[3.3]heptan-2-yl]methanone]
1	O=C(N1CCC(C(c2ccc(F)cc2)c2nc(C3CC3)no2)CC1)N1CC2(CC(n3cnc(C4CC4)n3)C2)C1 (centres unmarked) [Example 207, [4-[(3-cyclopropyl-1,2,4-oxadiazol-5-yl)-(4-fluorophenyl)methyl]-1-piperidyl]-[6-(3-cyclopropyl-1,2,4-triazol-1-yl)-2-azaspiro[3.3]heptan-2-yl]methanone]
0.02	N=S(=O)(c1cccc(CC2CC3(C2)CN(C(=O)N2CC4(CC(n5cnc(C6CC6)n5)C4)C2)C3)c1)C(F)(F)F (centres unmarked) [Example 447, [6-(3-cyclopropyl-1,2,4-triazol-1-yl)-2-azaspiro[3.3]heptan-2-yl]−[6-[[3-(trifluoromethylsulfonimidoyl)phenyl]methyl]-2-azaspiro[3.3]heptan-2-yl]methanone]
